ChEMBL document CHEMBL5528029, “Design, synthesis, and biological evaluation of novel discoidin domain receptor inhibitors for the treatment of lung adenocarcinoma and pulmonary fibrosis” (Eur J Med Chem, 2024)
The source made the active and inactive calls. The calls are words filed in the database; no cut-off is given here.

Assays:
[1] = molecular target: T1, Discoidin domain-containing receptor 2 (Homo sapiens, UniProt Q16832); test: Inhibition of DDR2 (unknown origin)
T1 sequence (Q16832 whole entry): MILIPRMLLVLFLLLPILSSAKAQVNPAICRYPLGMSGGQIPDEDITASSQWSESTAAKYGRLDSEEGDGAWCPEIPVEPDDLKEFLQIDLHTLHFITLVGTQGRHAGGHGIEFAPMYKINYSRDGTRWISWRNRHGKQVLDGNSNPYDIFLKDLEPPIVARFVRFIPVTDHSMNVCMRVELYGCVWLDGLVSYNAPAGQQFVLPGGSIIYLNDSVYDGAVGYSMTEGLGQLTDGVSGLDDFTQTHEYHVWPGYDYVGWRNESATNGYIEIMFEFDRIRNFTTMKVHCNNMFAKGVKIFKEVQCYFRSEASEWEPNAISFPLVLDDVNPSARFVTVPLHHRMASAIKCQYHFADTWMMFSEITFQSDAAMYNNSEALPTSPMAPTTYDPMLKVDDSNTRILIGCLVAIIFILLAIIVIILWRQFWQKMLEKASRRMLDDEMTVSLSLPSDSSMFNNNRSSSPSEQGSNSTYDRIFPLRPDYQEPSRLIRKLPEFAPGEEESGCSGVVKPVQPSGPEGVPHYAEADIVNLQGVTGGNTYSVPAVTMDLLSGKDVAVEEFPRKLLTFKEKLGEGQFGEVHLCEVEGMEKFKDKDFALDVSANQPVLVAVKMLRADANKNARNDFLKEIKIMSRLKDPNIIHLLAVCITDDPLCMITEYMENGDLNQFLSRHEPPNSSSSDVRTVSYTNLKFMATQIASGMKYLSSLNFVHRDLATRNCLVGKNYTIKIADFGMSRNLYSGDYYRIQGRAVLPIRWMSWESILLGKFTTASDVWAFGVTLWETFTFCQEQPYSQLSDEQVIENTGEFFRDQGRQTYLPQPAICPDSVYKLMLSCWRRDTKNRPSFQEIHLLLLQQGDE

A549 [2] = test: Effect on ERK1/2 level in human A549 cells at 50 to 200 nM by Western blotting analysis; type: functional, cell-based; details: dose 50-200 nM
A549 [3] = test: Effect on AKT1 level in human A549 cells at 50 to 200 nM by Western blotting analysis; type: functional, cell-based; details: dose 50-200 nM
Mus musculus [4] = test: Antifibrotic activity against bleomycin-induced C57BL/6 mouse model of pulmonary fibrosis assessed as reduction in inflammatory cytokines levels in BALF at 30 mg/kg, ip administered once daily for 21 days; type: functional, organism-based; details: time 21.0 day
Mus musculus [5] = test: Antifibrotic activity against bleomycin-induced C57BL/6 mouse model of pulmonary fibrosis assessed as reduction in collagen-I level in pulmonary tissue at 30 mg/kg, ip administered once daily for 21 days by immunofluorescence staining based assay; type: functional, organism-based; details: time 21.0 day
Mus musculus [6] = test: Antifibrotic activity against bleomycin-induced C57BL/6 mouse model of pulmonary fibrosis assessed as increase in animal survival at 30 mg/kg, ip administered once daily for 21 days; type: functional, organism-based; details: time 21.0 day
[7] = Antiproliferative activity against human SPCA1 cells incubated for 72 hrs by MTT assay; details: SPCA1, 72 h
Mus musculus [8] = test: Antifibrotic activity against bleomycin-induced C57BL/6 mouse model of pulmonary fibrosis assessed as reduction in morphological changes at 30 mg/kg, ip administered once daily for 21 days by H and E staining based assay; type: functional, organism-based; details: time 21.0 day
A549 [9] = test: Antiproliferative activity against human A549 cells transfected with DDR1 siRNA incubated for 72 hrs by MTT assay; type: functional, cell-based
Mus musculus [10] = test: Antifibrotic activity against bleomycin-induced C57BL/6 mouse model of pulmonary fibrosis assessed as reduction in neutrophil count in BALF at 30 mg/kg, ip administered once daily for 21 days; type: functional, organism-based; details: time 21.0 day
A549 [11] = test: Inhibition of epithelial-to-mesenchymal transition in human A549 cells assessed as upregulation of E-cadherin protein expression at 50 to 200 nM by Western blotting analysis; type: functional, cell-based; details: dose 50-200 nM
[12] = molecular target: BDNF/NT-3 growth factors receptor (Homo sapiens) (UniProt Q16620); test: Inhibition of TRK-B (unknown origin) assessed as remaining activity at 1 uM using fluorescein-poly GAT as substrate in presence of ATP by TR-FRET assay relative to control
BDNF/NT-3 growth factors receptor (Homo sapiens), sequence (Q16620 32-822 limits assumed): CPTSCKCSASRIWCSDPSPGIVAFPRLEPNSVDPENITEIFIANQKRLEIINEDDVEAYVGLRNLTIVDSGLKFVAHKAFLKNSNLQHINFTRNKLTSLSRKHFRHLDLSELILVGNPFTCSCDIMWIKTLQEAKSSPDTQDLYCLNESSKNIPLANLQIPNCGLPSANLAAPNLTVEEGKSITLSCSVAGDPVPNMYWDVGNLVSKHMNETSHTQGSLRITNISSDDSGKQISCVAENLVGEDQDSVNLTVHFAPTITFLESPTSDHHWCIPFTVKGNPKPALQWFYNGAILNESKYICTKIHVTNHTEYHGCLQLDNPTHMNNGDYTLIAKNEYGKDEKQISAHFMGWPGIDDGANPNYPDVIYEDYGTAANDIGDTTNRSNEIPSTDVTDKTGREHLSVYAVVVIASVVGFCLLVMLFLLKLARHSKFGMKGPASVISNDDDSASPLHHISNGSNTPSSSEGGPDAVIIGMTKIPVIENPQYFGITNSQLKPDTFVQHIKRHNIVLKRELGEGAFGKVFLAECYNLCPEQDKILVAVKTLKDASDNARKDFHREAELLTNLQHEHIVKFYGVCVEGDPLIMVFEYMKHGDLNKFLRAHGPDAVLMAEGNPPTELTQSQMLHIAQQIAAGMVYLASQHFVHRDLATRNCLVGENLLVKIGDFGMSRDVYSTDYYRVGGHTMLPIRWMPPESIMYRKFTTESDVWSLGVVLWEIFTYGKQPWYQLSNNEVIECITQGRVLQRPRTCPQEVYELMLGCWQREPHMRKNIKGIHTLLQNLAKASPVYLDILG

[13] = molecular target: RAC-alpha serine/threonine-protein kinase (Homo sapiens) (UniProt P31749); test: Inhibition of Akt1 phosphorylation in human A549 cells at 50 to 200 nM by Western blotting analysis; type: cell-based; details: dose 50-200 nM
RAC-alpha serine/threonine-protein kinase (Homo sapiens), sequence (P31749 whole entry): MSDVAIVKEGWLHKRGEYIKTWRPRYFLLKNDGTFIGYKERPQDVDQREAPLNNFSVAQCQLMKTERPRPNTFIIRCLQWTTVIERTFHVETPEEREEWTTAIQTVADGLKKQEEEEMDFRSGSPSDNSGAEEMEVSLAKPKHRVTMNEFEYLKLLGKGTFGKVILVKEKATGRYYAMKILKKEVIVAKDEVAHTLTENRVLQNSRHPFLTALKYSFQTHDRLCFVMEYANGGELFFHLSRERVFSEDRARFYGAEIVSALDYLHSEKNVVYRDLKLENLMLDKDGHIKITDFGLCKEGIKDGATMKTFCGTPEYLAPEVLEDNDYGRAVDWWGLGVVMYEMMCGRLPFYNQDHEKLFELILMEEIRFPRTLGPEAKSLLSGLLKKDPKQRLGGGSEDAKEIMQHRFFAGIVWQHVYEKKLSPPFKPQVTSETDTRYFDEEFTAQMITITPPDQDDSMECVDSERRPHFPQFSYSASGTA

A549 [14] = test: Effect on DDR1 level in human A549 cells at 50 to 200 nM by Western blotting analysis; type: functional, cell-based; details: dose 50-200 nM
A549 [15] = test: Inhibition of epithelial-to-mesenchymal transition in human A549 cells assessed as downregulation of N-cadherin protein expression at 50 to 200 nM by Western blotting analysis; type: functional, cell-based; details: dose 50-200 nM
A549 [16] = test: Antitumor activity against human A549 cells xenografted in SPF BALB/c nude mouse assessed as reduction in cell growth ratio at 30 mg/kg, ip administered for 14 days by TUNEL staining based immunohistochemistry analysis; type: functional, organism-based; details: time 14.0 day
[17] = molecular target: T2, Discoidin domain-containing receptor 2 (Homo sapiens) (UniProt Q16832); test: Inhibition of DDR2 (unknown origin) assessed as remaining activity at 1 uM using fluorescein-poly GAT as substrate in presence of ATP by TR-FRET assay relative to control
T2 sequence (whole entry): T1 sequence (Q16832 whole entry)

A549 [18] = test: Antiproliferative activity against human A549 cells incubated for 72 hrs by MTT assay; details: A549, 72 h
Mus musculus [19] = test: Antifibrotic activity against bleomycin-induced C57BL/6 mouse model of pulmonary fibrosis assessed as reduction in total cell count in BALF at 30 mg/kg, ip administered once daily for 21 days; type: functional, organism-based; details: time 21.0 day
NIH3T3 [20] = test: Inhibition of TGF-beta1 induced mouse NIH3T3 cells activation assessed as reduction in alpha-SMA level at 3 to 6 uM preincubated with TGF-beta1 followed by compound addition by immunofluorescence staining based assay; type: functional, cell-based; details: dose 3-6 µM
[21] = Toxicity in SPF BALB/c nude mouse xenografted with human A549 cells assessed as weight loss at 30 mg/kg, ip administered for 14 days; type: organism-based; details: in vivo, 336 h, time 14 day
[22] = molecular target: High affinity nerve growth factor receptor (Homo sapiens) (UniProt P04629); test: Inhibition of TRK-A (unknown origin) assessed as remaining activity at 1 uM using fluorescein-poly GAT as substrate in presence of ATP by TR-FRET assay relative to control
High affinity nerve growth factor receptor (Homo sapiens), sequence (P04629 33-796 limits assumed): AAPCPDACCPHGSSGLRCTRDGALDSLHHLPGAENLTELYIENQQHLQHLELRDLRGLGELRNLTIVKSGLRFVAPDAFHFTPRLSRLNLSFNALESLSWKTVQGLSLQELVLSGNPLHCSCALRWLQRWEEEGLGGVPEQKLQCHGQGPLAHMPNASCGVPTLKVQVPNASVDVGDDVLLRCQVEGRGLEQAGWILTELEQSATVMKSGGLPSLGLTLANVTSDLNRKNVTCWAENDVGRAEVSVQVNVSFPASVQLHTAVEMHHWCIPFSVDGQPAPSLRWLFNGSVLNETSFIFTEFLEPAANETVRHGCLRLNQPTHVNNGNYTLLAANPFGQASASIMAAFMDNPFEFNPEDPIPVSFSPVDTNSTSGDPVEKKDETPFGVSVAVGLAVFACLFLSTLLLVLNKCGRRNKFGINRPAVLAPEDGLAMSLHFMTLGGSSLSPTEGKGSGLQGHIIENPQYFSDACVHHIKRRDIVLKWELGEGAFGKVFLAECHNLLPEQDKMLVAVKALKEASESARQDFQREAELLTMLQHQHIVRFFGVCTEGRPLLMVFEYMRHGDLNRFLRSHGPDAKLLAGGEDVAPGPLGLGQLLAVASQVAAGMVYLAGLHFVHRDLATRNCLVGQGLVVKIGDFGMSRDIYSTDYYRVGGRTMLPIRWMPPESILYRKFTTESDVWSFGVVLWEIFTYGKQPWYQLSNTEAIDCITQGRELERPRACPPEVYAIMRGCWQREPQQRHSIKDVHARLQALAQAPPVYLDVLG

A549 [23] = test: Antitumor activity against human A549 cells xenografted in SPF BALB/c nude mouse assessed as tumor growth inhibition at 30 mg/kg, ip administered for 14 days; type: functional, organism-based; details: time 14.0 day
A549 [24] = test: Antitumor activity against human A549 cells xenografted in SPF BALB/c nude mouse assessed as reduction in Ki-67 expression at 30 mg/kg, ip administered for 14 days by immunohistochemistry analysis; type: functional, organism-based; details: time 14.0 day
Mus musculus [25] = test: In vivo inhibition of DDR1 phosphorylation in SPF BALB/c nude mouse xenografted with human A549 cells at 30 mg/kg, ip administered for 14 days; type: functional, organism-based; details: time 14.0 day
Mus musculus [26] = test: Antifibrotic activity against bleomycin-induced C57BL/6 mouse model of pulmonary fibrosis assessed as increase in animal survival at 15 mg/kg, ip administered once daily for 21 days; type: functional, organism-based; details: time 21.0 day
[27] = molecular target: NT-3 growth factor receptor (Homo sapiens) (UniProt Q16288); test: Inhibition of TRK-C (unknown origin) assessed as remaining activity at 1 uM using fluorescein-poly GAT as substrate in presence of ATP by TR-FRET assay relative to control
NT-3 growth factor receptor (Homo sapiens), sequence (Q16288 32-839 limits assumed): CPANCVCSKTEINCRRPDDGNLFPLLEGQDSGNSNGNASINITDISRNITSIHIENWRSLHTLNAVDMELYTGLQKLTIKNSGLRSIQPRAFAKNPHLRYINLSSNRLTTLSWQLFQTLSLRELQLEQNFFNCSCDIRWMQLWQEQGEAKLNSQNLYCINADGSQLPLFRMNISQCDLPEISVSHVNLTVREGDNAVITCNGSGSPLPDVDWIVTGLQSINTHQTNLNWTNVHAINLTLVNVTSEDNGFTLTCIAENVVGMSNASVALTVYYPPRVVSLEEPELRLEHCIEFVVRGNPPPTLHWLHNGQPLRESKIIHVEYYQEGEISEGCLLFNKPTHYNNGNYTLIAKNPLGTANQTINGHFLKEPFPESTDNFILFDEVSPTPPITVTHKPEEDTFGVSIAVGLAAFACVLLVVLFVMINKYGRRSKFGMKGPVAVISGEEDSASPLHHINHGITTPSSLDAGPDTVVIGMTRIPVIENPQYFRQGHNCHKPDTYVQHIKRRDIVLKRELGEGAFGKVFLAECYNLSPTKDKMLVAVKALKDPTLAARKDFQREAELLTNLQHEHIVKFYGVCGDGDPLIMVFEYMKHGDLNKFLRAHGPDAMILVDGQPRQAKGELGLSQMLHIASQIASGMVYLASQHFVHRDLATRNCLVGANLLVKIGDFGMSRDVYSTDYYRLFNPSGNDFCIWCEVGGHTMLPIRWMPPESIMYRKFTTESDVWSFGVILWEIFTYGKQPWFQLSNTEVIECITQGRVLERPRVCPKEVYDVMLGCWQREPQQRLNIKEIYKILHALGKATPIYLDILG

Mus musculus [28] = test: Antifibrotic activity against bleomycin-induced C57BL/6 mouse model of pulmonary fibrosis assessed as reduction in collagen hyperplasia at 30 mg/kg, ip administered once daily for 21 days; type: functional, organism-based; details: time 21.0 day
A549 [29] = test: Inhibition of epithelial-to-mesenchymal transition in human A549 cells assessed as upregulation of E-cadherin protein expression at 200 nM by laser confocal microscopy analysis; type: functional, cell-based
[30] = molecular target: Mitogen-activated protein kinase; ERK1/ERK2 (Homo sapiens) (UniProt P27361+P28482); test: Inhibition of ERK1/2 phosphorylation in human A549 cells at 50 to 200 nM by Western blotting analysis; type: cell-based; details: dose 50-200 nM
Mitogen-activated protein kinase; ERK1/ERK2 (Homo sapiens), sequence (P27361 whole entry, looked up): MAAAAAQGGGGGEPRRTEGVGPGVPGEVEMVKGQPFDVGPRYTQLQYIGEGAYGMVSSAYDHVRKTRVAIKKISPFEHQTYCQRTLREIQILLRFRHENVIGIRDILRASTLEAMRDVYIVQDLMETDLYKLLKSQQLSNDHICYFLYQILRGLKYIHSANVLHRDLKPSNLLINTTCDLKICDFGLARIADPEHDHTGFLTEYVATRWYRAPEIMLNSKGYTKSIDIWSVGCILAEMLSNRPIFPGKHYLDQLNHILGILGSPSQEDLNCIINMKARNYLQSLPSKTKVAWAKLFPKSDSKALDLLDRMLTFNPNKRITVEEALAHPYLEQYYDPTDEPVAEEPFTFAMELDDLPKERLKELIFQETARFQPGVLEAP
Mitogen-activated protein kinase; ERK1/ERK2 (Homo sapiens), sequence (P28482 whole entry, looked up): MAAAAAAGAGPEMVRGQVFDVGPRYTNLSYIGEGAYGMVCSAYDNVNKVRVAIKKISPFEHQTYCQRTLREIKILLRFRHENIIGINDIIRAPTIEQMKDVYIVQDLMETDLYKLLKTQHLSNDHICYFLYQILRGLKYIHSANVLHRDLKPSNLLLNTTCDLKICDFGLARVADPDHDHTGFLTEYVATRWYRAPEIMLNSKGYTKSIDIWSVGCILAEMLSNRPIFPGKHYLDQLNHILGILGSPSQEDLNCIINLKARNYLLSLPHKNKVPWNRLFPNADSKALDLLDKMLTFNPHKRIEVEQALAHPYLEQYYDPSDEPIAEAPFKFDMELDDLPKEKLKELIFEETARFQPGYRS

NIH3T3 [31] = test: Inhibition of TGF-beta1 induced mouse NIH3T3 cells activation assessed as reduction in collagen-I accumulation at 3 to 6 uM preincubated with TGF-beta1 followed by compound addition by immunofluorescence staining based assay; type: functional, cell-based; details: dose 3-6 µM
A549 [32] = test: Inhibition of epithelial-to-mesenchymal transition in human A549 cells assessed as downregulation of N-cadherin protein expression at 200 nM by laser confocal microscopy analysis; type: functional, cell-based
NCI-H1975 = test: Antiproliferative activity against human NCI-H1975 cells incubated for 72 hrs by MTT assay; details: NCI-H1975, 72 h
A549 [33] = test: Inhibition of cell migration in human A549 cells at 50 to 200 nM by transwell assay; type: functional, cell-based; details: dose 50-200 nM
Mus musculus [34] = test: Antifibrotic activity against bleomycin-induced C57BL/6 mouse model of pulmonary fibrosis assessed as reduction in alpha-SMA level in pulmonary tissue at 30 mg/kg, ip administered once daily for 21 days by immunofluorescence staining based assay; type: functional, organism-based; details: time 21.0 day
NIH3T3 [35] = test: Inhibition of TGF-beta1 induced mouse NIH3T3 cells activation assessed as reduction in collagen-I accumulation at 5 uM preincubated with TGF-beta1 followed by compound addition by immunofluorescence staining based assay; type: functional, cell-based
NIH3T3 [36] = test: Inhibition of TGF-beta1 induced mouse NIH3T3 cells activation assessed as reduction in alpha-SMA level at 5 uM preincubated with TGF-beta1 followed by compound addition by immunofluorescence staining based assay; type: functional, cell-based

CN1CCN(C(=O)Cn2cc(CNC(=O)Nc3ccc(F)cc3F)c3cc(F)ccc32)CC1
IC50 [1]: 126 nM
Activity (A549 [2]): inactive
Activity (A549 [3]): inactive
Activity (Mus musculus [4]): Active
Activity (Mus musculus [5]): Active
Activity (Mus musculus [6]): Active
IC50 [7]: 3510 nM
Activity (Mus musculus [8]): Active
Activity (A549 [9]): inactive
Activity (Mus musculus [10]): Active
inhibition (A549 [11]): Active
Activity [12]: 106%
inhibition [13]: Active
Activity (A549 [14]): inactive
inhibition (A549 [15]): Active
Activity (A549 [16]): Active
Activity [17]: 13.7%
IC50 (A549 [18]): 1840 nM
Activity (Mus musculus [19]): Active
inhibition (NIH3T3 [20]): Active
Activity [21]: Non-Toxic
Activity [22]: 84.9%
Activity (A549 [23]): Active
Activity (A549 [24]): Active
inhibition (Mus musculus [25]): Active
Activity (Mus musculus [26]): Active
Activity [27]: 78.6%
Activity (Mus musculus [28]): Active
inhibition (A549 [29]): Active
inhibition [30]: Active
inhibition (NIH3T3 [31]): Active
inhibition (A549 [32]): Active
IC50 (NCI-H1975): 1870 nM
inhibition (A549 [33]): Active
Activity (Mus musculus [34]): Active

Cc1nc(Nc2ncc(C(=O)Nc3c(C)cccc3Cl)s2)cc(N2CCN(CCO)CC2)n1 [DASATINIB ANHYDROUS]
Activity (A549 [2]): inactive
Activity (A549 [3]): inactive
inhibition (NIH3T3 [35]): Active
Activity (Mus musculus [6]): Active
IC50 [7]: 2460 nM
inhibition (A549 [11]): Active
Activity (A549 [14]): inactive
inhibition (A549 [15]): Active
IC50 (A549 [18]): 2550 nM
Activity (A549 [23]): Active
inhibition (NIH3T3 [36]): Active
IC50 (NCI-H1975): 1260 nM
